One assay concerns the target CDK1/Cyclin B1 (Homo sapiens, UniProt P06493). Kind of assay: CDK1/Cyclin B1 Biochemical Assay (TR-FRET), 1 mM ATP. Conditions: 0.15 μM Rb (Ser780)-biotin substrate, pH7.0, 60 min preincubation, 90 min reaction, room temperature. As to the method:
(§1) CDK2/Cyclin E1 and CDK1/Cyclin B1 Biochemical Assays
(§2) Compounds disclosed herein were tested for inhibition of CDK2/Cyclin E1 or CDK1/Cyclin B1 kinase in an assay based on the time-resolved fluorescence-resonance energy transfer (TR-FRET) methodology. The assay was carried out in 384-well low volume black plates in a reaction mixture containing CDK2/Cyclin E1 or CDK1/Cyclin B1, 1 mM ATP for CDK2/Cyclin E1 and CDK1/Cyclin B1, 0.15 μM Rb (Ser780)-biotin substrate and 0-10 μM compound in buffer containing 50 mM HEPES pH7.0, 0.02% NaN3, 0.01% BSA, 0.1 mM Orthovanadate, 50 mM MgCl2, 1 mM DTT and 0.005% Tween-20. The kinase was incubated with compound for 60 minutes at room temperature and the reaction was initiated by the addition of ATP and Rb (Ser780)-biotin substrate. After reaction at room temperature for 90 minutes, an equal volume of stop/detection solution was added according to the manufacture's instruction (Cisbio Bioassays). The stop/detection solution contained Streptavidin-XL665 and Anti-pRb (Ser780) mAb-Eu Cryptate in Detection buffer (Cisbio Bioassays). Plates were incubated at room temperature for 60 minutes, and the TR-FRET signals (ex337 nm, em665 nm/620 nm) were recorded on a PHERAstar FSX plate reader (BMG Labtech). The inhibition percentage of CDK2/Cyclin E1 or CDK1/Cyclin B1 kinase activity in presence of increasing concentrations of compounds was calculated based on the ratio of fluorescence at 665 nm to that at 620 nm. The IC50 for each compound was derived from fitting the data to the four-parameter logistic equation by Dotmatics.
For orientation: TR-FRET usually uses a lanthanide donor and a delayed reading to cut background.

The target in a further assay is CDK2/Cyclin E1 (Homo sapiens, UniProt P24941). Description: CDK2/Cyclin E1 Biochemical Assay (TR-FRET), 1 mM ATP. The note with it: 0.15 μM Rb (Ser780)-biotin substrate, pH7.0, 60 min preincubation, 90 min reaction, room temperature. As to the method:
as §1, §2

The results in this text go back to US20260297080A1, “BICYCLIC COMPOUNDS AS CDK INHIBITORS” (BeOne Medicines I GmbH, priority 2022, published 2026).

Broadly, the pIC50 is −log10 of the IC50, conventionally taken in molar units.

pIC50: −log10 of the molar value.

CDK1/Cyclin B1, sequence (P06493 whole entry): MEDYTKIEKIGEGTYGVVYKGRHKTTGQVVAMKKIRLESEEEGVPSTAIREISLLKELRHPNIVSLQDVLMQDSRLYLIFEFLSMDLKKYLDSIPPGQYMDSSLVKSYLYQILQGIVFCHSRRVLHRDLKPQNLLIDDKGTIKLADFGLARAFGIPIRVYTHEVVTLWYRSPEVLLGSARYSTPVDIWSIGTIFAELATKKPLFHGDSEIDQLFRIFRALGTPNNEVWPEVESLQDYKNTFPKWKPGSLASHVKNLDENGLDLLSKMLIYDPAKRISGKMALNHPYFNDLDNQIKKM
CDK1/Cyclin B1, sequence (P14635 whole entry partner): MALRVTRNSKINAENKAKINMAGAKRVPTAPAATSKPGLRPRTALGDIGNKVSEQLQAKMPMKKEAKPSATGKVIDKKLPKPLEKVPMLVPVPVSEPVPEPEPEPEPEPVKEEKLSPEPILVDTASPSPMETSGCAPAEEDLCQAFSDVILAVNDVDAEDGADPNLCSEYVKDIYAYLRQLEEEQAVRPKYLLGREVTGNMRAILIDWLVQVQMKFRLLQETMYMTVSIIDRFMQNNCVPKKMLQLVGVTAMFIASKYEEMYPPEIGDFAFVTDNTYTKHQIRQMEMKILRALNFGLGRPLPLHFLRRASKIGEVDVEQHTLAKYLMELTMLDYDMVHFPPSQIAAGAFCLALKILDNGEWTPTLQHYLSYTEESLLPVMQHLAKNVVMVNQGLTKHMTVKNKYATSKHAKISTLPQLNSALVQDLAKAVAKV

`O=C(NCC1CC1)O[C@H]1CC[C@@H](c2cc(Nc3cc4c(cc3F)S(=O)(=O)NC4)n[nH]2)C1` (relative stereo) [Example 420, cis-3-(3-((6-fluoro-1,1-dioxido-2,3-dihydrobenzo[d]isothiazol-5-yl)amino)-1H-pyrazol-5-yl)cyclopentyl(cyclopropylmethyl)carbamate]: the values for the pIC50 on CDK1/Cyclin B1 and against CDK2/Cyclin E1 were 5.26 and 7.62, respectively.

As for `CCNC(=O)O[C@H]1CC[C@@H](c2cc(Nc3cc4c(cc3F)S(=O)(=O)NC4)n[nH]2)C1` (relative stereo) [Example 421, cis-3-(3-((6-fluoro-1,1-dioxido-2,3-dihydrobenzo[d]isothiazol-5-yl)amino)-1H-pyrazol-5-yl)cyclopentyl ethylcarbamate], the results for the pIC50 at CDK1/Cyclin B1 and on CDK2/Cyclin E1 were less than 5.00 and 6.87, respectively.

As for `CC(C)(C)NC(=O)O[C@H]1CC[C@@H](c2cc(Nc3ccc4c(c3F)CS(=O)(=O)N4)n[nH]2)C1` (relative stereo) [Example 423, cis-3-(3-((4-fluoro-2,2-dioxido-1,3-dihydrobenzo[c]isothiazol-5-yl)amino)-1H-pyrazol-5-yl)cyclopentyl tert-butylcarbamate], the values for the pIC50 at CDK1/Cyclin B1 and on CDK2/Cyclin E1 were 6.60 and 8.57, respectively.

Consider `CN1c2ccc(Nc3cc([C@@H]4CC[C@H](OC(=O)NC5CCOC5)C4)[nH]n3)cc2CS1(=O)=O` (relative stereo) [Example 424, cis-3-(3-((1-methyl-2,2-dioxido-1,3-dihydrobenzo[c]isothiazol-5-yl)amino)-1H-pyrazol-5-yl)cyclopentyl(tetrahydrofuran-3-yl)carbamate], for which the pIC50 is less than 5.00 against CDK1/Cyclin B1 and 7.08 against CDK2/Cyclin E1.

On to `CC(C)NC(=O)O[C@H]1CC[C@@H](c2cc(Nc3cc4c(cn3)S(=O)(=O)NC4)n[nH]2)C1` (relative stereo) [Example 425, cis-3-(3-((1,1-dioxido-2,3-dihydroisothiazolo[5,4-c]pyridin-5-yl)amino)-1H-pyrazol-5-yl)cyclopentyl isopropylcarbamate], for which the pIC50 was less than 5.00 against CDK1/Cyclin B1 and 5.71 against CDK2/Cyclin E1.

As to `CN1c2ccc(Nc3cc([C@@H]4CC[C@H](OC(=O)NCC5(O)CC5)C4)[nH]n3)cc2CS1(=O)=O` (relative stereo) [Example 426, cis-3-(3-((1-methyl-2,2-dioxido-1,3-dihydrobenzo[c]isothiazol-5-yl)amino)-1H-pyrazol-5-yl)cyclopentyl((1-hydroxycyclopropyl)methyl)carbamate], the results for the pIC50 at CDK1/Cyclin B1 and at CDK2/Cyclin E1 were 5.31 and 7.29, respectively.

Turning to `O=C(NC1CCOC1)O[C@H]1CC[C@@H](c2cc(Nc3ccc4c(c3)CS(=O)(=O)N4)n[nH]2)C1` (relative stereo) [Example 428, cis-3-(3-((2,2-dioxido-1,3-dihydrobenzo[c]isothiazol-5-yl)amino)-1H-pyrazol-5-yl)cyclopentyl(tetrahydrofuran-3-yl)carbamate], the negative logarithm of the IC50 (pIC50) is 5.31 on CDK1/Cyclin B1 and 7.68 on CDK2/Cyclin E1.

`O=C(NC1CCOC1)O[C@H]1CC[C@@H](c2cc(Nc3ccc4c(c3F)CS(=O)(=O)N4C3CC3)n[nH]2)C1` (relative stereo) [Example 429, cis-3-(3-((1-cyclopropyl-4-fluoro-2,2-dioxido-1,3-dihydrobenzo[c]isothiazol-5-yl)amino)-1H-pyrazol-5-yl)cyclopentyl(tetrahydrofuran-3-yl)carbamate]: the pIC50 against CDK1/Cyclin B1 was less than 5.00; at CDK2/Cyclin E1, 6.88.

For the molecule `O=C(NC1CCOC1)O[C@H]1CC[C@@H](c2cc(Nc3ccc4c(c3F)CS(=O)(=O)N4)n[nH]2)C1` (relative stereo) [Example 431, cis-3-(3-((4-fluoro-2,2-dioxido-1,3-dihydrobenzo[c]isothiazol-5-yl)amino)-1H-pyrazol-5-yl)cyclopentyl(tetrahydrofuran-3-yl)carbamate], the pIC50 against CDK1/Cyclin B1 is less than 5.00; on CDK2/Cyclin E1, 7.38.

Turning to `CCC(=O)CNC(=O)O[C@H]1CC[C@@H](c2cc(Nc3ccc4c(c3F)CS(=O)(=O)N4)n[nH]2)C1` (relative stereo) [Example 432, cis-3-(3-((4-fluoro-2,2-dioxido-1,3-dihydrobenzo[c]isothiazol-5-yl)amino)-1H-pyrazol-5-yl)cyclopentyl(2-oxobutyl)carbamate], the pIC50 on CDK1/Cyclin B1 is 5.88; against CDK2/Cyclin E1, 7.64.

`CC[C@H](C)NC(=O)O[C@H]1CC[C@@H](c2cc(Nc3ccc4c(c3F)CS(=O)(=O)N4CC(C)(C)O)n[nH]2)C1` (relative stereo) [Example 434, cis-3-(3-((4-fluoro-1-(2-hydroxy-2-methylpropyl)-2,2-dioxido-1,3-dihydrobenzo[c]isothiazol-5-yl)amino)-1H-pyrazol-5-yl)cyclopentyl((S)-sec-butyl)carbamate]: the pIC50 against CDK1/Cyclin B1 was 6.13; at CDK2/Cyclin E1, 8.77.

Regarding `CC(C)(O)CN1c2ccc(Nc3cc([C@@H]4CC[C@H](OC(=O)NC5(C)CC5)C4)[nH]n3)c(F)c2CS1(=O)=O` (relative stereo) [Example 435, cis-3-(3-((4-fluoro-1-(2-hydroxy-2-methylpropyl)-2,2-dioxido-1,3-dihydrobenzo[c]isothiazol-5-yl)amino)-1H-pyrazol-5-yl)cyclopentyl(1-methylcyclopropyl)carbamate], the pIC50 against CDK1/Cyclin B1 is 6.37; against CDK2/Cyclin E1, 8.89.

Consider `CC1(C)CCCN1C(=O)O[C@H]1CC[C@@H](c2cc(Nc3ccc4c(c3F)CS(=O)(=O)N4)n[nH]2)C1` (relative stereo) [Example 436, cis-3-(3-((4-fluoro-2,2-dioxido-1,3-dihydrobenzo[c]isothiazol-5-yl)amino)-1H-pyrazol-5-yl)cyclopentyl 2,2-dimethylpyrrolidine-1-carboxylate], for which the negative logarithm of the IC50 (pIC50) was 6.91 against CDK1/Cyclin B1 and 8.82 at CDK2/Cyclin E1.

Take `CN(C(=O)O[C@H]1CC[C@@H](c2cc(Nc3ccc4c(c3F)CNS4(=O)=O)n[nH]2)C1)C1CCOC1` (relative stereo) [Example 437, cis-3-(3-((4-fluoro-1,1-dioxido-2,3-dihydrobenzo[d]isothiazol-5-yl)amino)-1H-pyrazol-5-yl)cyclopentyl methyl(tetrahydrofuran-3-yl)carbamate]: the negative-log IC50 (pIC50) is less than 5.00 at CDK1/Cyclin B1 and 6.60 on CDK2/Cyclin E1.

`O=C(NCCC(F)(F)F)O[C@H]1CC[C@@H](c2cc(Nc3ccc4c(c3F)CS(=O)(=O)N4)n[nH]2)C1` (relative stereo) [Example 438, cis-3-(3-((4-fluoro-2,2-dioxido-1,3-dihydrobenzo[c]isothiazol-5-yl)amino)-1H-pyrazol-5-yl)cyclopentyl(3,3,3-trifluoropropyl)carbamate]: the results for the pIC50 at CDK1/Cyclin B1 and against CDK2/Cyclin E1 were 6.23 and 8.33, respectively.

`CC1(NC(=O)O[C@H]2CC[C@@H](c3cc(Nc4ccc5c(c4F)CS(=O)(=O)N5)n[nH]3)C2)CCCC1` (relative stereo) [Example 439, cis-3-(3-((4-fluoro-2,2-dioxido-1,3-dihydrobenzo[c]isothiazol-5-yl)amino)-1H-pyrazol-5-yl)cyclopentyl(1-methylcyclopentyl)carbamate]: the pIC50 against CDK1/Cyclin B1 is 6.67; against CDK2/Cyclin E1 it was 8.57.

On to `CN(C(=O)O[C@H]1CC[C@@H](c2cc(Nc3cc4c(cc3F)S(=O)(=O)NC4)n[nH]2)C1)C1CCOC1` (relative stereo) [Example 440, cis-3-(3-((6-fluoro-1,1-dioxido-2,3-dihydrobenzo[d]isothiazol-5-yl)amino)-1H-pyrazol-5-yl)cyclopentyl methyl(tetrahydrofuran-3-yl)carbamate], for which the pIC50 against CDK1/Cyclin B1 is less than 5.00; at CDK2/Cyclin E1, 6.72.
